According to patent US20240132431A1, “METHOD FOR ALKYLATING ACIDIC FUNCTIONAL GROUP” (Chugai Seiyaku Kabushiki Kaisha, priority 2021, published 2024):

Molecular target: T1, Bcl-2 protein (Recombinant Human Bcl-2 Protein) (Homo sapiens, UniProt P10415)
T1 construct: purchased Novus NBP2-34889
Test: Binding evaluation of mixture library compounds to Bcl-2 using AS-MS (affinity selection mass spectrometry)
Settings: for ASMS ratio (%) n = 1 / ASMS ratio (%) n = 2: ASMS Ratio(%)=(A−C)/B×100; for ASMS ratio (%) n = 1: replicate n = 1; for ASMS ratio (%) n = 2: replicate n = 2
Outline: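 Pooled library of ~1200 compounds ([…] each, final) incubated with recombinant human Bcl-2 (20 μM final) in Tris-HCl pH 7.4, NaCl, Tween-20, DTT buffer, dark, 23° C., 1 h. Bound fraction recovered by SEC spin column, organic extraction, reversed-phase LC/MS. ASMS Ratio (%) = (A−C)/B×100 versus protein-free standard and SEC blank.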

[1] = AS-MS on the mixture of 1200 library compounds
[2] = AS-MS, mixture of 1200 compounds, Bcl-2

T1 sequence (P10415 whole entry): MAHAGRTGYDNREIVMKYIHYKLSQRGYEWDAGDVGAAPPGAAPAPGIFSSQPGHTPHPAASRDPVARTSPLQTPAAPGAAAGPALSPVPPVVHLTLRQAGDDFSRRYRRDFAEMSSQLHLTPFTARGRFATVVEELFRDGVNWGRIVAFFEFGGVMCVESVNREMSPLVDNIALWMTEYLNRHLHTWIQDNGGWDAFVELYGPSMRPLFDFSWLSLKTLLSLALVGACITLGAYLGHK

Question: With CCOc1cncc(-c2cc(CN3CCN(c4ccc(C(=O)N(C)CC56CC7CC(CC(C7)C5)C6)cc4)CC3)cc(OC(C)C)c2)c1 [B3A058-01, N-(1-Adamantylmethyl)-4-[4-[[3-(5-ethoxypyridin-3-yl)-5-propan-2-yloxyphenyl]methyl]piperazin-1-yl]-N-methylbenzamide] as the molecule, how does the “ASMS ratio (%) n = 1” value [1] read?
Answer: The value was 5.9%.

Question: And the “ASMS ratio (%) n = 2” value [1]?
Answer: Its value is −7.6%.

Question: Which “ASMS ratio (%) n = 1” value [2] does the source give for CCOc1cccc(-c2cc(OC)c(CN3CCN(c4ccc(C(=O)NCC(F)(F)F)nn4)CC3)c(OC)c2)c1 [B1K085-01] here?
Answer: The value was 4.2%.

Question: And the “ASMS ratio (%) n = 2” value [2]?
Answer: The value was −0.2%.

Question: Which results are given for CCOc1cccc(-c2ccc(C(=O)N3CCN(c4ccc(C(=O)NS(=O)(=O)CCC(F)(F)F)nn4)CC3)cc2C)c1 [B2N003-01, 6-[4-[4-(3-Ethoxyphenyl)-3-methylbenzoyl]piperazin-1-yl]-N-(3,3,3-trifluoropropylsulfonyl)pyridazine-3-carboxamide]?
Answer: ASMS ratio (%) (n = 1): 0.0%; ASMS ratio (%) (n = 2): 0.0%

Question: For CCOc1cccc(-c2csc(C(=O)N3CCN(c4ccc(C(=O)N(CC)CC)cc4)CC3)c2)c1 [B4J023-01, 4-[4-[4-(3-Ethoxyphenyl)thiophene-2-carbonyl]piperazin-1-yl]-N,N-diethylbenzamide], which “ASMS ratio (%) n = 1” value [1] is on record?
Answer: The value was 3.5%.

Question: And the “ASMS ratio (%) n = 2” value [1]?
Answer: Its value is −3.4%.

Question: CCOc1cncc(-c2ccc(C(=O)N3CCN(c4ccc(C(=O)NS(=O)(=O)c5ccc(NCCSc6ccccc6)c(C(F)(F)F)c5)cc4)CC3)cc2C)c1 [B2R026-01, 4-[4-[4-(5-Ethoxypyridin-3-yl)-3-methylbenzoyl]piperazin-1-yl]-N-[4-(2-phenylsulfanylethylamino)-3-(trifluoromethyl)phenyl]sulfonylbenzamide] was tested. Which “ASMS ratio (%)” value (n = 1) did it give?
Answer: The value was 1.7%.

Question: What about the “ASMS ratio (%)” value (n = 2) of the same molecule?
Answer: Its value is −4.6%.

Question: What does the source list for CCOc1cncc(-c2cc(CN3CCN(c4ccc(C(=O)NS(=O)(=O)c5ccc(NCCSc6ccccc6)c([N+](=O)[O-])c5)cc4)CC3)cc(OC(C)C)c2)c1 [B2Q058-01, 4-[4-[[3-(5-Ethoxypyridin-3-yl)-5-propan-2-yloxyphenyl]methyl]piperazin-1-yl]-N-[3-nitro-4-(2-phenylsulfanylethylamino)phenyl]sulfonylbenzamide]?
Answer: ASMS ratio (%) n = 1 (AS-MS, mixture library, Bcl-2): 3.7%; ASMS ratio (%) n = 2 (AS-MS, mixture library, Bcl-2): 3.7%

Question: With CCOc1cncc(-c2ccc(CN3CCN(c4ccc(C(=O)NS(C)(=O)=O)cc4)CC3)c3ccccc23)c1 [B2I066-01, 4-[4-[[4-(5-Ethoxypyridin-3-yl)naphthalen-1-yl]methyl]piperazin-1-yl]-N-methylsulfonylbenzamide] as the molecule, how does the “ASMS ratio (%)” value (n = 1) read?
Answer: Its value is 0.0%.

Question: And the “ASMS ratio (%)” value (n = 2)?
Answer: The value was 0.0%.

Question: For CCOc1cccc(-c2cc(CN3CCN(c4ccc(C(=O)NS(C)(=O)=O)cc4)CC3)cc(OCC)c2)c1 [B2I055-01, 4-[4-[[3-Ethoxy-5-(3-ethoxyphenyl)phenyl]methyl]piperazin-1-yl]-N-methylsulfonylbenzamide], which “ASMS ratio (%)” value (n = 1) is on record?
Answer: The value was 0.0%.

Question: What about the “ASMS ratio (%)” value (n = 2) of the same molecule?
Answer: Its value is 0.0%.

Question: Which “ASMS ratio (%)” value (n = 1) does the source give for CCOc1cccc(-c2cc(CN3CCN(c4ccc(C(=O)NS(=O)(=O)c5ccc(NCCSc6ccccc6)c(C(F)(F)F)c5)cc4)CC3)cc(OC(F)(F)F)c2)c1 [B2R063-01, 4-[4-[[3-(3-Ethoxyphenyl)-5-(trifluoromethoxy)phenyl]methyl]piperazin-1-yl]-N-[4-(2-phenylsulfanylethylamino)-3-(trifluoromethyl)phenyl]sulfonylbenzamide] here?
Answer: The value was 8.2%.

Question: What about the “ASMS ratio (%)” value (n = 2) of the same molecule?
Answer: Its value is 4.6%.

Question: Which “ASMS ratio (%)” value (n = 1) does the source give for CCOc1cncc(-c2ccc(CN3CCN(c4ccc(C(=O)NS(=O)(=O)C(C)(C)C)cc4)CC3)cc2C)c1 [B2L048-01] here?
Answer: The value was 3.9%.

Question: What about the “ASMS ratio (%)” value (n = 2) of the same molecule?
Answer: The value was −5.0%.

Question: How did the “ASMS ratio (%) n = 1” value [2] turn out when CCOc1cccc(C#Cc2ccccc2C(=O)N2CCN(c3ccc(C(=O)NCC45CC6CC(CC(C6)C4)C5)nn3)CC2)c1 [B1A007-01, N-(1-Adamantylmethyl)-6-[4-[2-[2-(3-ethoxyphenyl)ethynyl]benzoyl]piperazin-1-yl]pyridazine-3-carboxamide] was run?
Answer: The value was 0.0%.

Question: CCOc1cccc(-c2ccccc2CN2CCN(c3ccc(C(=O)Nc4ccc(OC)cc4)nn3)CC2)c1 [B1O071-01, 6-[4-[[2-(3-Ethoxyphenyl)phenyl]methyl]piperazin-1-yl]-N-(4-methoxyphenyl)pyridazine-3-carboxamide] was tested. Which “ASMS ratio (%) n = 1” value [1] did it give?
Answer: The value was 2.9%.

Question: What about the “ASMS ratio (%) n = 2” value [1] of the same molecule?
Answer: Its value is −1.1%.

Question: CCOc1cncc(-c2ccc(C(C)N3CCN(c4ccc(C(=O)NS(=O)(=O)c5ccc(NCCSc6ccccc6)c([N+](=O)[O-])c5)cc4)CC3)c(F)c2)c1 (stereo not drawn) [B2Q100-01, 4-[4-[1-[4-(5-Ethoxypyridin-3-yl)-2-fluorophenyl]ethyl]piperazin-1-yl]-N-[3-nitro-4-(2-phenylsulfanylethylamino)phenyl]sulfonylbenzamide] was tested. Which “ASMS ratio (%) n = 1” value (AS-MS, mixture library, Bcl-2) did it give?
Answer: Its value is 0.0%.

Question: And the “ASMS ratio (%) n = 2” value (AS-MS, mixture library, Bcl-2)?
Answer: The value was 10.7%.

Question: What does the source list for CCOc1cncc(-c2ccc(CN3CCN(c4ccc(C(=O)NS(=O)(=O)c5ccc(NCCSc6ccccc6)c([N+](=O)[O-])c5)nn4)CC3)c3ccccc23)c1 [B2Q092-01]?
Answer: ASMS ratio (%) n = 1 (AS-MS, mixture library, Bcl-2): 10.4%; ASMS ratio (%) n = 2 (AS-MS, mixture library, Bcl-2): 4.8%

Question: Which “ASMS ratio (%) n = 1” value (AS-MS, mixture library, Bcl-2) does the source give for CCOc1cncc(-c2cc(C(=O)N3CCN(c4ccc(C(=O)NS(=O)(=O)CC56CC7CC(CC(C7)C5)C6)nn4)CC3)cc(C(F)(F)F)c2)c1 [B2A018-01, N-(1-Adamantylmethylsulfonyl)-6-[4-[3-(5-ethoxypyridin-3-yl)-5-(trifluoromethyl)benzoyl]piperazin-1-yl]pyridazine-3-carboxamide] here?
Answer: The value was 5.1%.

Question: What about the “ASMS ratio (%) n = 2” value (AS-MS, mixture library, Bcl-2) of the same molecule?
Answer: The value was 0.0%.

Question: For CCOc1cncc(-c2cc(CN3CCN(c4ccc(C(=O)N(C)CC56CC7CC(CC(C7)C5)C6)cc4)CC3)cc(C(F)(F)F)c2)c1 [B3A062-01, N-(1-Adamantylmethyl)-4-[4-[[3-(5-ethoxypyridin-3-yl)-5-(trifluoromethyl)phenyl]methyl]piperazin-1-yl]-N-methylbenzamide], which “ASMS ratio (%) n = 1” value [1] is on record?
Answer: Its value is 2.2%.

Question: And the “ASMS ratio (%) n = 2” value [1]?
Answer: The value was 2.8%.

Question: Which “ASMS ratio (%) n = 2” value (AS-MS, mixture library, Bcl-2) does the source give for CCOc1cccc(-c2ccc(C(C)N3CCN(c4ccc(C(=O)NS(=O)(=O)c5ccc(NCCSc6ccccc6)c([N+](=O)[O-])c5)cc4)CC3)c(F)c2)c1 (stereo not drawn) [B2Q099-01, 4-[4-[1-[4-(3-Ethoxyphenyl)-2-fluorophenyl]ethyl]piperazin-1-yl]-N-[3-nitro-4-(2-phenylsulfanylethylamino)phenyl]sulfonylbenzamide] here?
Answer: The value was 0.0%.

Question: How did the “ASMS ratio (%) n = 1” value [2] turn out when CCOc1cccc(-c2cc(C(=O)N3CCN(c4ccc(C(=O)NCC(F)(F)F)cc4)CC3)cc(C(C)(C)C)c2)c1 [B1K037-01, 4-[4-[3-tert-Butyl-5-(3-ethoxyphenyl)benzoyl]piperazin-1-yl]-N-(2,2,2-trifluoroethyl)benzamide] was run?
Answer: The value was 0.8%.

Question: And the “ASMS ratio (%) n = 2” value [2]?
Answer: The value was 1.9%.

Question: For CCOc1cncc(-c2cc(CN3CCN(c4ccc(C(=O)NS(=O)(=O)c5ccc(NCCSc6ccccc6)c([N+](=O)[O-])c5)nn4)CC3)cc(OC(C)C)c2)c1 [B2Q084-01, 6-[4-[[3-(5-Ethoxypyridin-3-yl)-5-propan-2-yloxyphenyl]methyl]piperazin-1-yl]-N-[3-nitro-4-(2-phenylsulfanylethylamino)phenyl]sulfonylpyridazine-3-carboxamide], which “ASMS ratio (%) n = 1” value (AS-MS, mixture library, Bcl-2) is on record?
Answer: The value was 12.6%.

Question: And the “ASMS ratio (%) n = 2” value (AS-MS, mixture library, Bcl-2)?
Answer: Its value is −4.9%.

Question: What does the source list for CCOc1cccc(-c2ccc(C(=O)N3CCN(c4ccc(C(=O)NS(=O)(=O)c5ccc(NCCSc6ccccc6)c([N+](=O)[O-])c5)cc4)CC3)c3ccccc23)c1 [B2Q035-01, 4-[4-[4-(3-Ethoxyphenyl)naphthalene-1-carbonyl]piperazin-1-yl]-N-[3-nitro-4-(2-phenylsulfanylethylamino)phenyl]sulfonylbenzamide]?
Answer: ASMS ratio (%) n = 1 (AS-MS, mixture library, Bcl-2): 9.9%; ASMS ratio (%) n = 2 (AS-MS, mixture library, Bcl-2): −13.7%

Question: How did the “ASMS ratio (%)” value (n = 1) turn out when CCOc1cncc(-c2ccc(CN3CCN(c4ccc(C(=O)NS(=O)(=O)CCC(F)(F)F)cc4)CC3)c(CC)c2)c1 [B2N050-01, 4-[4-[[4-(5-Ethoxypyridin-3-yl)-2-ethylphenyl]methyl]piperazin-1-yl]-N-(3,3,3-trifluoropropylsulfonyl)benzamide] was run?
Answer: Its value is 0.0%.

Question: CCOc1cccc(-c2cc(OC)c(CN3CCN(c4ccc(C(=O)NS(=O)(=O)CC56CC7CC(CC(C7)C5)C6)nn4)CC3)c(OC)c2)c1 [B2A085-01, N-(1-Adamantylmethylsulfonyl)-6-[4-[[4-(3-ethoxyphenyl)-2,6-dimethoxyphenyl]methyl]piperazin-1-yl]pyridazine-3-carboxamide] was tested. Which “ASMS ratio (%) n = 1” value (AS-MS, mixture library, Bcl-2) did it give?
Answer: Its value is 0.0%.

Question: And the “ASMS ratio (%) n = 2” value (AS-MS, mixture library, Bcl-2)?
Answer: Its value is 0.0%.

Question: What does the source list for CCOc1cncc(-c2cc(CN3CCN(c4ccc(C(=O)Nc5ccc(OC)cc5)cc4)CC3)cc(C(F)(F)F)c2)c1 [B1O062-01, 4-[4-[[3-(5-Ethoxypyridin-3-yl)-5-(trifluoromethyl)phenyl]methyl]piperazin-1-yl]-N-(4-methoxyphenyl)benzamide]?
Answer: ASMS ratio (%) n = 1 [1]: 1.3%; ASMS ratio (%) n = 2 [1]: 4.6%

Question: With CCOc1cncc(C#Cc2cncc(C(=O)N3CCN(c4ccc(C(=O)NS(=O)(=O)c5ccc(NCCSc6ccccc6)c(C(F)(F)F)c5)cc4)CC3)c2)c1 [B2R032-01, 4-[4-[5-[2-(5-Ethoxypyridin-3-yl)ethynyl]pyridine-3-carbonyl]piperazin-1-yl]-N-[4-(2-phenylsulfanylethylamino)-3-(trifluoromethyl)phenyl]sulfonylbenzamide] as the molecule, how does the “ASMS ratio (%)” value (n = 1) read?
Answer: Its value is 6.4%.

Question: And the “ASMS ratio (%)” value (n = 2)?
Answer: The value was 0.0%.
